Data on two compounds can be found in patent US9629857B2, “Therapeutic uses of glutathione mimics” (BOARD OF TRUSTEES OF NORTHERN ILLINOIS UNIVERSITY, priority 2007, dated 2017).

The conditions of data set [1]: after first pass metabolism; cited from earlier work.
The subject of another data set is alkaline phosphatase. The data set can be described thus: Digestion of the phosphorylated prodrug with alkaline phosphatase, followed by 31P NMR. It is filed as in vitro ADME. As to conditions: 1 mg (10 units) alkaline phosphatase in water, stirred for 2 hours. As for the experimental part: N-acetyl-S-phosphocysteine was synthesized according to the procedure followed by Binkely (1954). N-acetyl cysteine (0.5 g) was dissolved in 8 mL of distilled water in an ice bath. The NAC solution was then treated with 0.2 mL of phosphorus oxychloride and with sodium hydroxide to maintain the basic pH of 11. The resulting white solid was dried and re-dissolved in deuterium oxide for ^31P, ^13C and ^1H NMR analysis. After analysis, the sample was dried, re-suspended in water, and treated with 1 mg (10 units) of alkaline phosphatase, and stirred for 2 hours. The solution was dried and resuspended in deuterium oxide for NMR analysis.
Synthesis of ester cysteine was followed according to the procedure as follows. NAC (0.2 g) was dissolved in 7 mL of ethanol, 2 mL of concentrated hydrochloric acid and stirred at room temperature for 1 hour. The reaction mixture was refluxed for 1 hour at 60° C. The sample was then dried and resuspended in acetonitrile for ESI-MS analysis (same instrument settings as described for analysis of HIDD). The acid protected sample was phosphorylated with POCL3, and sodium hydroxide dried and resuspended in deuterium oxide for NMR analysis. After analysis, the sample was dried, resuspended in water, treated with 1 mg (10 units) of alkaline phosphatase and stirred for 2 hours. […]
The ester NAC was synthesized according to the procedure as follows and analyzed with ESI-MS. […]

For `CC(=O)N[C@@H](CS)C(=O)O` [NAC, N-acetyl cysteine], the “presence of free drug in the systemic circulation” value in data set [1] is recorded as “around 9%”. For `CC(=O)N[C@@H](CSP(=O)(O)O)C(=O)O` [phosphorylated NAC, N-acetyl-S-phosphocysteine], in the data set on alkaline phosphatase, the “cleavage of S—P linkage on digestion with alkaline phosphatase (31P NMR)” value is “hydrolyzed with alkaline phosphatase”.
